From the NIST ThermoML archive (doi:10.1016/j.fluid.2016.02.018)
Numbers after ± are expanded uncertainties.

Conditions: 293.2 K; 101.33 kPa; Liquid; Vibrating tube method

## CCn1cc[n+](C)c1.N#CN=C=[N-] [1-ethyl-3-methylimidazolium dicyanamide]
  mass density: 1104.9 ± 1.1 kg/m3

## CC[n+]1ccc(C)cc1.O=S(=O)([N-]S(=O)(=O)C(F)(F)F)C(F)(F)F
  mass density: 1489.9 ± 0.7 kg/m3
